Laboratory results from patent US20150133373A1, “TRANSMUCOSAL DELIVERY OF ENGINEERED POLYPEPTIDES” (priority 2012, published 2015).

Experiments:
C57BL6 female mice = assay: Kidney vacuolization (cytoplasmic vacuolation of renal cortical tubular epithelial cells); type: in vivo, mouse; conditions: Example 14; sc injection on days 0-6, kidneys on day 7
Method: With some drugs, such as some pegylated proteins, undesirable vacuoles can form in cytoplasm of epithelial cells lining the proximal convoluted tubules, which is an undesirable toxicity measure. […] C57BL6 female mice (n=2 cages, 3 mice/cage) were weighed daily 3 hours prior to lights out Immediately after weighing, on days 0-6 mice were injected subcutaneously with test compound. Mice were sacrificed on day 7 and kidneys submitted for histopathology. […] A positive control compound known to cause vacuole formation was scored as 3. The ABD polypeptide itself scored 0.
With some drugs, such as some pegylated proteins, undesirable vacuoles can form in cytoplasm of epithelial cells lining the proximal convoluted tubules, which is an undesirable toxicity measure. […] C57BL6 female mice (n=2 cages, 3 mice/cage) were weighed daily 3 hours prior to lights out Immediately after weighing, on days 0-6 mice were injected subcutaneously with test compound. Mice were sacrificed on day 7 and kidneys submitted for histopathology. […] A positive control compound known to cause vacuole formation was scored as 3.

NIH/Swiss mice = assay: OGTT DOA (oral glucose tolerance test for duration of action) in NIH/Swiss mice; type: in vivo, mouse; conditions: Table 6; 25 nmol/kg IP at t=−1 day; blood glucose at 30 min after glucose gavage ([…]); 4 hr fasted NIH/Swiss female mice
diabetic ob/ob mice = assay: Chronic (28 days) treatment of diabetic ob/ob mice: glucose, HbA1c, body weight; type: in vivo, mouse
Method: The time course of the effect of the test compound on body weight, glucose lowering and HbA1c lowering in ob/ob mice was investigated post dose, with values at 4 weeks presented in FIGS. 11A, 11B, 11C and 11D. […] Points represent mean±s.d. (standard deviation). Each test compound was injected IP on day=0 immediately following baseline sample collection in non-fasted male ob/ob mice. […] Unless indicated otherwise, blood glucose measures described herein employed a OneTouch® Ultra® device (LifeScan, Inc. Miliptas, Calif.).

[1] = PK profile, food intake and body weight after a single subcutaneous dose in normal HSD rats; type: in vivo, rat; conditions: 25 nmol/kg subcutaneous
Method: Blood was collected via tail bleed at t=1 hour, 3 hours, 6 hours, 24 hours, 48 hours, 72 hours, 96 hours and 168 hours from fed HSD male rats. Food and body weights were measured daily. […] Points represent mean±sd.
Pharmacokinetic profile and biological activity of an exemplary engineered polypeptide subcutaneously dosed in normal Harlan Sprague-Dawley (HSD) rats is presented. […] Blood was collected via tail bleed at t=1 hour, 3 hours, 6 hours, 24 hours, 48 hours, 72 hours, 96 hours and 168 hours from fed HSD male rats. Food and body weights were measured daily. […] Points represent mean±sd. In the figures, vehicle is solid square, Cmpd 2-11 is open inverted triangle and Cmpd 2-9 is closed triangle. The plasma maximal concentration in FIG. 18C is equivalent to about 25,000 picomolar.

[2] = Stability in human plasma; type: in vitro ADME; conditions: 10 μg/ml in human plasma, 37 degrees C, 5 hours; normalized to a standard (100%)
ob/ob mice = assay: Body weight, glucose and HbA1c in ob/ob mice after a single sc dose; type: in vivo, mouse; conditions: single sc injection, non-fasted male ob/ob mice; Cmpd 15 at 250 nmol/kg
Text: Changes in glucose (% pre-treatment) and in HbA1c (% pre-treatment) are depicted in FIGS. 5B-5C. Points represent mean±s.d. (standard deviation). […] Unless indicated otherwise, blood glucose measures described herein employed a OneTouch® Ultra® device (LifeScan, Inc. Miliptas, Calif.).

db/db mice = assay: Oral (gavage) delivery, blood glucose lowering in diabetic db/db mice; type: in vivo, mouse; conditions: 240 nmol/kg peroral by gavage in PBS/propylene glycol (50:50); 2-hour fasted db/db mice; to 120 minutes
Sprague Dawley rats = assay: IVGTT DOA in HSD fed anesthetized rats 5 days post dose; type: in vivo, rat; conditions: 240 nmol/kg
Method: In vivo assays for activity and duration of action and pharmacokinetics can be done using known methods. For example, duration can be performed using an oral glucose tolerance test (OGTT) in which the drug is administered to the subject at a desired time point before the glucose is administered orally (to measure drug duration of action; OGTT DOA) and glucose blood levels are measured (e.g. readily done in mice). Activity and duration can also be measured using an intravenous glucose tolerance test (IVGTT) in which the drug is administered to the subject at a desired time point before the glucose is administered IV (IVGTT DOA) and blood glucose levels are measured (e.g. can readily be done in rats). Preferred engineered compounds have a desired effect on blood glucose of at least 24 hours duration after a single dose of drug, preferably at least 3 days, at least 4 days, at least 5 days, at least 6 days, and at least 1 week after the single dose of drug is given.
The time course of plasma glucose after IVGTT is depicted in FIG. 4A. Integrated (AUC0-60) glucose levels are depicted in the histogram of FIG. 4B. The time course of the change in insulin levels in the test subjects was depicted in FIG. 4C. The integrated insulin levels (AUC0-30) are depicted in FIG. 4D. The time course of body weight change (% change from baseline) is depicted for the test subjects in FIG. 4E. […]

[3] = 25 and 250 nmol/kg IP twice each week for 28 days

## HGEGTFTSDLSKQLEEEAVRLFIEWLKQGGPSKEIISTGGGGSASLAEAKVLANRELDKYGVSDFYKRLINKAKTVEGVEALKLHILAALP [Cmpd 15]
C57BL6 female mice
  Severity score for cytoplasmic vacuolation of renal cortical tubular epithelial cells: 0
NIH/Swiss mice
  % Glucose Lowering Compared to Vehicle: −21%
Diabetic ob/ob mice; 25 nmol/kg biw IP vs exendin-4 ~[…] CSI, 28 days
  glycemic and body weight loss effects compared to the maximally efficacious dose of exendin-4 (in words): exceeded
Diabetic ob/ob mice; 250 nmol/kg biw IP, 28 days
  effect compared to the maximally efficacious dose of exendin-4 (in words): significantly greater than the maximally efficacious dose of exendin-4
Diabetic ob/ob mice; [3]
  HbA1c lowering (in words): significant HbA1c lowering
  body weight loss (in words): significant body weight loss
Diabetic ob/ob mice; equimolar dosing to liraglutide, data not shown
  HbA1c lowering and body weight loss compared to liraglutide (in words): more effective than liraglutide
Diabetic ob/ob mice; equimolar dosing, twice weekly (BIW), ob/ob mice
  glucose lowering upon chronic exposure compared to liraglutide (in words): superior to liraglutide
[1]
  apparent half-life: 54 h
[2]
  Percent Stable in Human Plasma: 96.0%
ob/ob mice
  body weight in ob/ob mice (in words): significant body weight loss
db/db mice
  activity after oral dosing (blood glucose, in words): active when dosed orally
Sprague Dawley rats
  time after administration at which drug activity is present (IVGTT DOA): at least 5 days
